Laboratory results published in US6613718B2, “Aryl ether derivatives and processes for their preparation and herbicidal and desiccant compositions containing them” (Ishihara Sangyo Kaisha, Ltd., priority 2001, dated 2003).

Tests used:
[1] = tested on: field corn (Zea mays L., var. Dekalb 535, CORN); assay: Pre-emerge greenhouse screening, crop safety (phytotoxicity rating); format: in vivo; conditions: 14 days after application
Procedure, shortened: (§1)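 Ratings taken 14 days after treatment on a 0–100 scale, 100 meaning complete plant death. Post-emerge: 2-3 leaf plants, 0.25% v/v surfactant added; pre-emerge: seeds sown a day ahead, soil surface-watered after spraying. Rates 15–1000 g ai/ha in acetone, 187 l/ha.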

[2] = tested on: soybean (Glycine max L., var. Pella 86, SOY); assay: as above; format: in vivo; conditions: 14 days after application
Procedure, shortened: as §1

[3] = tested on: upland rice (Oryza sp., var.Tebonnet, RICE); assay: as above; format: in vivo; conditions: 14 days after application
Procedure, shortened: as §1

[4] = tested on: field corn (Zea mays L., var. Dekalb 535, CORN); assay: Post-emerge greenhouse screening, crop safety / corn selectivity (phytotoxicity rating); format: in vivo; conditions: 14 days after application
Procedure, shortened: as §1

[5] = as above; format: in vivo, Zea mays L.; conditions: Zea mays (field corn), in vivo, 62.5 g ai/ha
Procedure, shortened: as §1

[6] = tested on: soybean (Glycine max L., var. Pella 86, SOY); assay: Post-emerge greenhouse screening, crop safety (phytotoxicity rating); format: in vivo; conditions: 14 days after application
Procedure, shortened: as §1

[7] = tested on: upland rice (Oryza sp., var.Tebonnet, RICE); assay: as above; format: in vivo; conditions: 14 days after application
Procedure, shortened: as §1

[8] = tested on: sicklepod (Cassia obtusifolia, CASOB); assay: Post-emerge greenhouse herbicide activity screening, phytotoxicity rating; format: in vivo
Procedure, shortened: as §1

[9] = tested on: barnyardgrass (Echinochloa crus-galli, ECHCG); assay: as above; format: in vivo; conditions: 14 days after application
Procedure, shortened: as §1

[10] = tested on: large crabgrass (Digitaria sanguinalis, DIGSA); assay: as above; format: in vivo; conditions: 14 days after application
Procedure, shortened: as §1

[11] = tested on: green foxtail (Setaria viridis, SETVI); assay: as above; format: in vivo
Procedure, shortened: as §1

[12] = tested on: velvetleaf (Abutilon theophrasti, ABUTH); assay: as above; format: in vivo; conditions: 14 days after application
Procedure, shortened: as §1

[13] = tested on: johnsongrass (Sorghum halepense, SORHA); assay: as above; format: in vivo; conditions: 14 days after application
Procedure, shortened: as §1

[14] = tested on: ivyleaf morningglory (Ipomoea hederacea, IPOHE); assay: as above; format: in vivo; conditions: 14 days after application
Procedure, shortened: as §1

[15] = tested on: lambsquarters (Chenopodium album, CHEAL); assay: as above; format: in vivo
Procedure, shortened: as §1

[16] = tested on: common ragweed (Ambrosia artemisiifolia L., AMBEL); assay: as above; format: in vivo
Procedure, shortened: as §1

[17] = tested on: redroot pigweed (Amaranthus retroflexus, AMARE); assay: as above; format: in vivo
Procedure, shortened: as §1

[18] = tested on: sicklepod (Cassia obtusifolia, CASOB); assay: Pre-emerge greenhouse herbicide activity screening, phytotoxicity rating; format: in vivo; conditions: 14 days after application
Procedure, shortened: as §1

[19] = tested on: barnyardgrass (Echinochloa crus-galli, ECHCG); assay: as above; format: in vivo; conditions: 14 days after application
Procedure, shortened: as §1

[20] = tested on: large crabgrass (Digitaria sanguinalis, DIGSA); assay: as above; format: in vivo; conditions: 14 days after application
Procedure, shortened: as §1

[21] = tested on: green foxtail (Setaria viridis, SETVI); assay: as above; format: in vivo; conditions: 14 days after application
Procedure, shortened: as §1

[22] = tested on: velvetleaf (Abutilon theophrasti, ABUTH); assay: as above; format: in vivo; conditions: 14 days after application
Procedure, shortened: as §1

[23] = tested on: johnsongrass (Sorghum halepense, SORHA); assay: as above; format: in vivo; conditions: 14 days after application
Procedure, shortened: as §1

[24] = tested on: ivyleaf morningglory (Ipomoea hederacea, IPOHE); assay: as above; format: in vivo; conditions: 14 days after application
Procedure, shortened: as §1

[25] = tested on: lambsquarters (Chenopodium album, CHEAL); assay: as above; format: in vivo; conditions: 14 days after application
Procedure, shortened: as §1

[26] = tested on: common ragweed (Ambrosia artemisiifolia L., AMBEL); assay: as above; format: in vivo; conditions: 14 days after application
Procedure, shortened: as §1

[27] = tested on: redroot pigweed (Amaranthus retroflexus, AMARE); assay: as above; format: in vivo; conditions: 14 days after application
Procedure, shortened: as §1

[28] = 125 g ai/ha, 14 days after application
[29] = 250 g ai/ha, 14 days after application

## Cn1nc(-c2cc(Oc3ncccn3)c(Cl)cc2F)c(Cl)c1[S+]([O-])C(F)F (stereo not drawn) [Compound 5-1]
[1]; 125 g ai/ha
  CORN crop damage, phytotoxicity rating (0-100 scale): 40
[1]; 250 g ai/ha
  CORN crop damage, phytotoxicity rating (0-100 scale): 50
[2]; 125 g ai/ha
  SOY crop damage, phytotoxicity rating (0-100 scale): 0
[2]; 250 g ai/ha
  SOY crop damage, phytotoxicity rating (0-100 scale): 65
[3]; 125 g ai/ha
  RICE crop damage, phytotoxicity rating (0-100 scale): 55
[3]; 250 g ai/ha
  RICE crop damage, phytotoxicity rating (0-100 scale): 80
[4]; 125 g ai/ha
  CORN crop damage, phytotoxicity rating (0-100 scale): 7
[4]; 250 g ai/ha
  CORN crop damage, phytotoxicity rating (0-100 scale): 8
[5]
  corn phytotoxicity rating (0-100 scale) at 14 days: 5
[6]; 125 g ai/ha
  SOY crop damage, phytotoxicity rating (0-100 scale): 65
[6]; 250 g ai/ha
  SOY crop damage, phytotoxicity rating (0-100 scale): 55
[7]; 125 g ai/ha
  RICE crop damage, phytotoxicity rating (0-100 scale): 50
[7]; 250 g ai/ha
  RICE crop damage, phytotoxicity rating (0-100 scale): 55
[8]; 31.3 g ai/ha
  CASOB phytotoxicity rating (0-100 scale): 35
[8]; 62.5 g ai/ha
  CASOB phytotoxicity rating (0-100 scale): 85
[8]; [28]
  CASOB phytotoxicity rating (0-100 scale): 99
[8]; [29]
  CASOB phytotoxicity rating (0-100 scale): 100
[9]; 125 g ai/ha
  ECHCG phytotoxicity rating (0-100 scale): 75
[9]; 250 g ai/ha
  ECHCG phytotoxicity rating (0-100 scale): 65
[10]; 125 g ai/ha
  DIGSA phytotoxicity rating (0-100 scale): 50
[10]; 250 g ai/ha
  DIGSA phytotoxicity rating (0-100 scale): 55
[11]; 31.3 g ai/ha
  SETVI phytotoxicity rating (0-100 scale): 50
[11]; 62.5 g ai/ha
  SETVI phytotoxicity rating (0-100 scale): 60
[11]; [28]
  SETVI phytotoxicity rating (0-100 scale): 95
[11]; [29]
  SETVI phytotoxicity rating (0-100 scale): 95
[12]; 125 g ai/ha
  ABUTH phytotoxicity rating (0-100 scale): 100
[12]; 250 g ai/ha
  ABUTH phytotoxicity rating (0-100 scale): 100
[13]; 125 g ai/ha
  SORHA phytotoxicity rating (0-100 scale): 75
[13]; 250 g ai/ha
  SORHA phytotoxicity rating (0-100 scale): 75
[14]; 125 g ai/ha
  IPOHE phytotoxicity rating (0-100 scale): 100
[14]; 250 g ai/ha
  IPOHE phytotoxicity rating (0-100 scale): 100
[15]; 31.3 g ai/ha
  CHEAL phytotoxicity rating (0-100 scale): 100
[15]; 62.5 g ai/ha
  CHEAL phytotoxicity rating (0-100 scale): 100
[15]; [28]
  CHEAL phytotoxicity rating (0-100 scale): 100
[15]; [29]
  CHEAL phytotoxicity rating (0-100 scale): 100
[16]; 31.3 g ai/ha
  AMBEL phytotoxicity rating (0-100 scale): 50
[16]; 62.5 g ai/ha
  AMBEL phytotoxicity rating (0-100 scale): 60
[16]; [28]
  AMBEL phytotoxicity rating (0-100 scale): 65
[16]; [29]
  AMBEL phytotoxicity rating (0-100 scale): 75
[17]; 31.3 g ai/ha
  AMARE phytotoxicity rating (0-100 scale): 98
[17]; 62.5 g ai/ha
  AMARE phytotoxicity rating (0-100 scale): 100
[17]; [28]
  AMARE phytotoxicity rating (0-100 scale): 100
[17]; [29]
  AMARE phytotoxicity rating (0-100 scale): 100
[18]; 125 g ai/ha
  CASOB phytotoxicity rating (0-100 scale): 60
[18]; 250 g ai/ha
  CASOB phytotoxicity rating (0-100 scale): 90
[19]; 125 g ai/ha
  ECHCG phytotoxicity rating (0-100 scale): 100
[19]; 250 g ai/ha
  ECHCG phytotoxicity rating (0-100 scale): 100
[20]; 125 g ai/ha
  DIGSA phytotoxicity rating (0-100 scale): 100
[20]; 250 g ai/ha
  DIGSA phytotoxicity rating (0-100 scale): 100
[21]; 125 g ai/ha
  SETVI phytotoxicity rating (0-100 scale): 100
[21]; 250 g ai/ha
  SETVI phytotoxicity rating (0-100 scale): 100
[22]; 125 g ai/ha
  ABUTH phytotoxicity rating (0-100 scale): 99
[22]; 250 g ai/ha
  ABUTH phytotoxicity rating (0-100 scale): 100
[23]; 125 g ai/ha
  SORHA phytotoxicity rating (0-100 scale): 100
[23]; 250 g ai/ha
  SORHA phytotoxicity rating (0-100 scale): 100
[24]; 125 g ai/ha
  IPOHE phytotoxicity rating (0-100 scale): 99
[24]; 250 g ai/ha
  IPOHE phytotoxicity rating (0-100 scale): 100
[25]; 125 g ai/ha
  CHEAL phytotoxicity rating (0-100 scale): 100
[25]; 250 g ai/ha
  CHEAL phytotoxicity rating (0-100 scale): 100
[26]; 125 g ai/ha
  AMBEL phytotoxicity rating (0-100 scale): 75
[26]; 250 g ai/ha
  AMBEL phytotoxicity rating (0-100 scale): 100
[27]; 125 g ai/ha
  AMARE phytotoxicity rating (0-100 scale): 100
[27]; 250 g ai/ha
  AMARE phytotoxicity rating (0-100 scale): 100
